The results in this text go back to patent US20220331310A1, “METHODS FOR ALLEVIATING PTERYGIUM-ASSOCIATED WORRY ABOUT EYE APPEARANCE” (Cloudbreak Therapeutics, LLC, priority 2019, published 2022).

The test system of this test is Patients with Primary or Recurrent Pterygium. As to the kind of experiment: Phase 2a vehicle-controlled study of nintedanib ophthalmic solution; patient questionnaire on symptoms and life impacts (1-5 scale). It is filed as in vivo, human. Conditions: 0.2% nintedanib ophthalmic solution, topical ocular, TID for 28 days, versus vehicle. The procedure: A Phase 2a Multicenter, Randomized, Vehicle-Controlled, Dose Escalating Study to Evaluate the Safety, Efficacy and Pharmacokinetics of Nintedanib Ophthalmic Solution in Patients with Primary or Recurrent Pterygium
Objectives of the study were to evaluate ocular and systemic safety of nintedanib and its efficacy in reducing pterygium vascularity in primary or recurrent patients. Several other secondary endpoints were also assessed, including the assessment of symptoms and life impacts by using a questionnaire based on a numerical 1-5 scale. The double-masked, vehicle-controlled, parallel study was conducted with 28 days TID repeat ocular dosing of vehicle and 0.2% nintedanib.
The disclosure focused on the relevant questionnaire endpoint that included 15 questions regarding the ocular symptoms, vision related functioning and the impact on life quality in patients. The questionnaire was derived from the validated Visual Functioning Questionnaire-25 (VFQ-25) (National Eye Institute, 2000) and the validated Ocular Surface Disease Index (OSDI) questionnaire (Schiffman R M, Christianson M D, Jacobsen G, Hirsch J D, Reis B L. Reliability and validity of the Ocular Surface Disease Index. Arch Ophthalmol. 2000; 118 (5): 615-621.). The patients were asked to rate severity using a 5-point scale, with 5 being the most severe.

On to `COC(=O)c1ccc2c(c1)NC(=O)/C2=C(\Nc1ccc(N(C)C(=O)CN2CCN(C)CC2)cc1)c1ccccc1` [nintedanib], for which the “frequency of worry about eye appearance (question "Worry about eye appearance?", change of questionnaire score)” value (5-point scale, 5 most severe, FIG. 1) is on record as “significantly better improvements than the vehicle group”. Further, the “questionnaire questions showing a significant difference between drug and vehicle” value (15-question questionnaire derived from VFQ-25 and OSDI) is on record as “only one out of fifteen questions showed a significant difference”.
